Laboratory results as given in the supplement of paper PMC13380429.

Columns and labels:
[1] = tested on: A549-ACE2; test: drug-induced phospholipidosis relative to tamoxifen; higher = more phospholipidosis
[2] = tested on: A549-ACE2; test: phospholipidosis EC50; higher = less potent phospholipidosis inducer
[3] = tested on: U2OS; test: drug sensitivity score (DSS) for viability; higher = more toxic; extreme values may be limits of the assay; settings: 72 h
[4] = tested on: HepG2; test: as above; settings: 72 h
[5] = tested on: Caco-2; test: as above; settings: 72 h
[6] = tested on: Vero E6; test: as above; settings: 72 h
[7] = tested on: Calu-3; test: as above; settings: 72 h
[8] = tested on: A549-ACE2 infected with SARS-CoV-2; test: cell count relative to DMSO; higher = less toxic; settings: 24 h
[9] = tested on: HepG2; test: relative viability EC50 (midpoint between 100% and the lowest measured viability); higher = less toxic; settings: 72 h
[10] = tested on: Caco-2; test: as above; settings: 72 h
[11] = tested on: Calu-3; test: as above; settings: 72 h
[12] = tested on: A549-ACE2 infected with SARS-CoV-2; test: SARS-CoV-2 infection rate relative to DMSO; higher = more infection; settings: 24 h
[13] = tested on: U2OS; test: cell viability relative to DMSO; higher = less toxic; settings: 72 h
[14] = tested on: HepG2; test: as above; settings: 72 h
[15] = tested on: Caco-2; test: as above; settings: 72 h
[16] = tested on: Vero E6; test: as above; settings: 72 h
[17] = tested on: Calu-3; test: as above; settings: 72 h
[18] = tested on: A549-ACE2 infected with SARS-CoV-2; test: morphology score (similarity to uninfected cells); higher = more like uninfected cells; settings: 24 h
[19] = tested on: U2OS; test: relative viability EC50 (midpoint between 100% and the lowest measured viability); higher = less toxic; settings: 72 h
[20] = tested on: Vero E6; test: as above; settings: 72 h

NC1(Cc2ccc(Cl)cc2)CCN(c2ncnc3[nH]ccc23)CC1
drug-induced phospholipidosis [%], [1]
Settings | 0.3 µM | 0.833333 µM | 3.33333 µM | 6.66667 µM | 10 µM | 30 µM
24 h | 2.53 | 6.69 | 24.4 | 64.2 | 86.2 | 95.1
48 h | 0.01 | -2.52 | 9.67 | 37.5 | 65.9 | 86.8
72 h | -2.31 | -5.85 | 5.48 | 20.6 | 47.9 | 73.3

Settings | SARS-CoV-2 infection rate [%] | cell count [%] | cell viability [%] | morphology score | phospholipidosis EC50 [µM]
[2], 24 h | – | – | – | – | 5.25
[2], 48 h | – | – | – | – | 7.16
[2], 72 h | – | – | – | – | 8.44
[8], 0.1 µM | – | 104 | – | – | –
[8], 0.3 µM | – | 105 | – | – | –
[8], 1 µM | – | 104 | – | – | –
[8], 3 µM | – | 105 | – | – | –
[12], 0.1 µM | 99 | – | – | – | –
[12], 0.3 µM | 106 | – | – | – | –
[12], 1 µM | 104 | – | – | – | –
[12], 3 µM | 85 | – | – | – | –
[13], 1 nM | – | – | 96.9 | – | –
[13], 10 nM | – | – | 101 | – | –
[13], 100 nM | – | – | 93 | – | –
[13], 1000 nM | – | – | 95 | – | –
[13], 10000 nM | – | – | 52.6 | – | –
[14], 1 nM | – | – | 100 | – | –
[14], 10 nM | – | – | 102 | – | –
[14], 100 nM | – | – | 94.5 | – | –
[14], 1000 nM | – | – | 91.1 | – | –
[14], 10000 nM | – | – | 26.3 | – | –
[15], 1 nM | – | – | 93.7 | – | –
[15], 10 nM | – | – | 109 | – | –
[15], 100 nM | – | – | 95.4 | – | –
[15], 1000 nM | – | – | 98.2 | – | –
[15], 10000 nM | – | – | 81.7 | – | –
[16], 1 nM | – | – | 97.6 | – | –
[16], 10 nM | – | – | 100 | – | –
[16], 100 nM | – | – | 96.8 | – | –
[16], 1000 nM | – | – | 88.5 | – | –
[16], 10000 nM | – | – | 65.3 | – | –
[17], 1 nM | – | – | 95.4 | – | –
[17], 10 nM | – | – | 99.9 | – | –
[17], 100 nM | – | – | 100 | – | –
[17], 1000 nM | – | – | 105 | – | –
[17], 10000 nM | – | – | 77.5 | – | –
[18], 0.1 µM | – | – | – | 0.13 | –
[18], 0.3 µM | – | – | – | -0.05 | –
[18], 1 µM | – | – | – | 0.15 | –
[18], 3 µM | – | – | – | 0.48 | –

Settings | drug sensitivity score | relative viability EC50 [µM]
[3] | 3.3 | –
[4] | 5.6 | –
[5] | 0.7 | –
[6] | 3 | –
[7] | 0.5 | –
[9] | – | 2.18
[10] | – | > 10
[11] | – | > 10

OC1=c2ccccc2=C(NC2CCCCC2)/C1=C\c1ccccc1
drug-induced phospholipidosis [%], [1]
Settings | 0.3 µM | 0.833333 µM | 3.33333 µM | 30 µM
24 h | 2.77 | -0.77 | 1.63 | 12.9
48 h | 0.98 | -0.44 | 6.41 | –
72 h | 1.89 | -2.33 | 6.19 | –

Settings | drug sensitivity score | relative viability EC50 [µM]
[3] | 8.3 | –
[4] | 6.5 | –
[5] | 5.6 | –
[6] | 6.3 | –
[7] | 3.6 | –
[9] | – | 2.59
[10] | – | 1.86
[11] | – | 3.1
[19] | – | 1.88
[20] | – | 2.4

Settings | SARS-CoV-2 infection rate, [12] [%] | cell count, [8] [%] | cell viability, [13] [%] | cell viability, [14] [%] | cell viability, [15] [%] | cell viability, [16] [%] | cell viability, [17] [%] | morphology score, [18]
1 nM | – | – | 98.9 | 95.6 | 107 | 93.6 | 89.1 | –
10 nM | – | – | 99.4 | 104 | 92 | 95.2 | 82.2 | –
0.1 µM | 96 | 99 | – | – | – | – | – | -0.03
100 nM | – | – | 108 | 101 | 96 | 96.9 | 90.1 | –
0.3 µM | 99 | 101 | – | – | – | – | – | 0.22
1 µM | 103 | 99 | – | – | – | – | – | -0.06
1000 nM | – | – | 83 | 93 | 88.3 | 91.7 | 99.5 | –
3 µM | 93 | 73 | – | – | – | – | – | 0.11
10000 nM | – | – | 0.1 | 1.2 | 32.8 | 10.5 | 35.8 | –
